Results as given in ChEMBL document CHEMBL3352358, “Discovery of 2-(cyclohexylmethylamino)pyrimidines as a new class of reversible valosine containing protein inhibitors” (J Med Chem, 2014).

Key:
[1] = Inhibition of cell proliferation of human HCT116 cells after 72 hrs by thermostable firefly luciferase based assay; assay type: functional, HCT-116; conditions: Homo sapiens, HCT-116, 72 h; read-out: IC50
[2] = biological target: Transitional endoplasmic reticulum ATPase (Homo sapiens, UniProt P55072); test: biochemical; assay type: cell-based
Sequence of Transitional endoplasmic reticulum ATPase (P55072 whole entry): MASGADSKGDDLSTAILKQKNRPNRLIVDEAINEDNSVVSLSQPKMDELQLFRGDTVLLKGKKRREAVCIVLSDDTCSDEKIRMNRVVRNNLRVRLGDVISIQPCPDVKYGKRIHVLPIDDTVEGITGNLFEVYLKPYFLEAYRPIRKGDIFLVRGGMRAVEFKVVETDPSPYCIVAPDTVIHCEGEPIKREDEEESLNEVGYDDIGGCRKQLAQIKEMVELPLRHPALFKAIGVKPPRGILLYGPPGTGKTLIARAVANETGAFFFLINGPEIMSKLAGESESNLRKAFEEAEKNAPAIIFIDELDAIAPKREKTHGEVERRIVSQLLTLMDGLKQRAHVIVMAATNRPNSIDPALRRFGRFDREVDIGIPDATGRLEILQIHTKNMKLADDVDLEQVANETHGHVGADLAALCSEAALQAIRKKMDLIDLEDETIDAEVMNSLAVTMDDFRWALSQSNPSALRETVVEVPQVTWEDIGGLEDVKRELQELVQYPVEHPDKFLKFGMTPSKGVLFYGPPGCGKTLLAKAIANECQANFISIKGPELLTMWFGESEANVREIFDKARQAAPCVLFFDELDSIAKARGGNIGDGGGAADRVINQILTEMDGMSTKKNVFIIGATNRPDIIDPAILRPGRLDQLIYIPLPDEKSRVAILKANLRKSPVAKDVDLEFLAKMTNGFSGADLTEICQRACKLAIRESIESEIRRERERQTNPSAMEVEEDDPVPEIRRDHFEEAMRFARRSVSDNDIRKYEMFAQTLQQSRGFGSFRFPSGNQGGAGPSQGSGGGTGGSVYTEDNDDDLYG
Description: Inhibition of human full length VCP (2 to 806 residues) expressed in High5 insect cells assessed as reduction in ATPase activity by measuring ADP formation by NADH coupled assay

| IC50 [2] [nM] | Structure (SMILES) | IC50 [1] [nM] |
| --- | --- | --- |
| 149 | COc1cccc(-c2cc(NCc3ccccc3)nc(NC[C@H]3CC[C@H](C(N)=O)CC3)n2)c1 | 6660 |
| 27 | O=C(O)[C@H]1CC[C@H](CNc2nc(NCc3ccccc3)cc(-c3ccccc3)n2)CC1 | > 20000 |
| 127 | NC(=O)[C@H]1CC[C@H](CNc2nc(NCc3ccccc3)cc(-c3ccccc3)n2)CC1 | 9580 |
| 448 | CNC(=O)[C@H]1CC[C@H](CNc2nc(NCc3ccccc3)cc(-c3ccccc3)n2)CC1 | 9260 |
| 133 | CS(=O)(=O)NC(=O)[C@H]1CC[C@H](CNc2nc(NCc3ccccc3)cc(-c3ccccc3)n2)CC1 | > 20000 |
| 264 | O=C(NS(=O)(=O)C(F)(F)F)[C@H]1CC[C@H](CNc2nc(NCc3ccccc3)cc(-c3ccccc3)n2)CC1 | > 20000 |
| 986 | NNC(=O)[C@H]1CC[C@H](CNc2nc(NCc3ccccc3)cc(-c3ccccc3)n2)CC1 | > 20000 |
| 46 | NC(=O)[C@H]1CC[C@H](CNc2nc(NCc3ccccc3)cc(-c3ccccc3F)n2)CC1 | > 10000 |
| 87 | CC(=O)c1cccc(-c2cc(NCc3ccccc3)nc(NC[C@H]3CC[C@H](C(N)=O)CC3)n2)c1 | 6550 |
| 106 | NC(=O)[C@H]1CC[C@H](CNc2nc(NCc3ccccc3)cc(-c3cccc(O)c3)n2)CC1 | > 10000 |
| 135 | NC(=O)[C@H]1CC[C@H](CNc2nc(NCc3ccccc3)cc(-c3cccc(CO)c3)n2)CC1 | > 10000 |
| 183 | Cc1cccc(-c2cc(NCc3ccccc3)nc(NC[C@H]3CC[C@H](C(N)=O)CC3)n2)c1 | 4160 |
| 237 | NC(=O)[C@H]1CC[C@H](CNc2nc(NCc3ccccc3)cc(-c3cccc(C(F)(F)F)c3)n2)CC1 | 7970 |
| 59 | CC(=O)Nc1ccc(-c2cc(NCc3ccccc3)nc(NC[C@H]3CC[C@H](C(N)=O)CC3)n2)cc1 | 4310 |
| 89 | NC(=O)[C@H]1CC[C@H](CNc2nc(NCc3ccccc3)cc(-c3ccc(CO)cc3)n2)CC1 | 7890 |
| 102 | CC(=O)c1ccc(-c2cc(NCc3ccccc3)nc(NC[C@H]3CC[C@H](C(N)=O)CC3)n2)cc1 | > 10000 |
| 106 | NC(=O)[C@H]1CC[C@H](CNc2nc(NCc3ccccc3)cc(-c3ccc(Cl)cc3)n2)CC1 | 7320 |
| 222 | NC(=O)[C@H]1CC[C@H](CNc2nc(NCc3ccccc3)cc(-c3ccc(C(F)(F)F)cc3)n2)CC1 | 7610 |
| 246 | CCOc1ccc(-c2cc(NCc3ccccc3)nc(NC[C@H]3CC[C@H](C(N)=O)CC3)n2)cc1 | 2230 |
| 299 | NC(=O)[C@H]1CC[C@H](CNc2nc(NCc3ccccc3)cc(-c3ccc(F)cc3)n2)CC1 | > 10000 |
| 61 | NC(=O)[C@H]1CC[C@H](CNc2nc(NCc3ccccc3)cc(-c3cc4ccccc4o3)n2)CC1 | 4640 |
| 71 | NC(=O)[C@H]1CC[C@H](CNc2nc(NCc3ccccc3)cc(-c3ccc4[nH]ncc4c3)n2)CC1 | 5720 |
| 74 | NC(=O)[C@H]1CC[C@H](CNc2nc(NCc3ccccc3)cc(-c3csc4ccccc34)n2)CC1 | 5820 |
| 82 | NC(=O)[C@H]1CC[C@H](CNc2nc(NCc3ccccc3)cc(-c3ccc4[nH]ccc4c3)n2)CC1 | 5640 |
| 109 | NC(=O)[C@H]1CC[C@H](CNc2nc(NCc3ccccc3)cc(-c3cccnc3)n2)CC1 | > 10000 |
| 452 | NC(=O)[C@H]1CC[C@H](CNc2nc(NCc3ccccc3)cc(-c3ccsc3)n2)CC1 | 7410 |
